This passage reports Criteria, Hair growth ratio and Score results from patent US20160263169A1, “COMPOSITION COMPRISING AN EXTRACT OF COMBINED HERB CONSISTING OF HEAT PROCESSED GINSENG, HOUTTUYNIAE HERBA, PERILLA LEAF AND TEA LEAF OR THE PROCESSED EXTRACT THEREOF AS AN ACTIVE INGREDIENT SHOWING HAIR-STIMULATING ACTIVITY AND PREVENTING ACTIVITY FROM HAIR LOSS, AND THE USE THEREOF” (GINSENG SCIENCE INC., priority 2015, published 2016).

The test system of this assay is C57BL/6 mouse. The assay is described as follows: Promoting effect on hair growth (hair-regrown area/shaved area) in shaved C57BL/6 mouse. The note with it: 2.5 mg spread on the back of mouse once a day. In kind it is in vivo.

Method: 6 weeks-old mouse (C57BL/6, 18-20 g, at the beginning of catagen, Orient Bio Inc. Seoul, Korea) was accustomed to the breeding environment for 1 week and anesthetized intramuscularly with an anesthetizer (2.5 mg/mouse, Ketamine, rompun, Bayer Korea Inc.). The back-hair of anesthetized mouse was removed by a grainer and the mice were divided into four groups consisting of 10 mice, respectively, i.e., (1) negative control group: treatment group with only solvent, (2) positive control group: treatment group with Minoxidil (0.5%, w/w), (3) comparative test group: treatment group with the extract prepared in Comparative Example 1 dissolved in adjuvant in a dose dependent manner, (4) test sample group: treatment group with the extract prepared in Examples dissolved in adjuvant in a dose dependent manner. 2.5 mg of the test samples was spread on the back of mouse once a day for 20 days.
The ratio of hair-regrown area/shaved area was quantitatively analyzed by image analyzer (Image-Pro, USA) after shooting the hair-grown area with digital camera (Canon, Japan) and the test result was scored to 5 scores, i.e., score 0: ineffective; score 1: merely effective; score 2: favorably effective; score 3; potently effective; score 4; most potently effective as shown in Table 2.

For `Nc1cc(N2CCCCC2)nc(N)[n+]1[O-]` [Positive control, Minoxidil], the Criteria result runs as follows: (5th day) “IE (Ineffective (IE))”; (10th day) “FE (favorably effective (FE))”; (15th day) “PE (potently effective (PE))”; (20th day) “PE (potently effective (PE))”. For the same molecule, the Hair growth ratio is, setting by setting: (5th day) 14%; (10th day) 42%; (15th day) 62%; (20th day) 68%. For the same molecule, the Score (5th day) is given as 0 (0-20%), the Score (10th day) is given as 2 (40-60%), the Score (15th day) was 3 (60-70%) and the Score (20th day) is listed as 3 (60-70%).
